Measurements reported in US20260256751A1, “COMBINATION OF BETA-2-ADRENERGIC RECEPTOR AGONISTS AND GLP-1 RECEPTOR AGONISTS FOR USE IN TREATING HYPERGLYCAEMIA” (ATROGI AB, priority 2023, published 2026).

Assays:
[1] = system: differentiated L6-myotubes; experiment: cAMP production relative to isoprenaline (Biological example 2 of WO 2019/053427); type: cell-based; conditions: 0.25 h, compound at 10 μM, activity relative to isoproterenol at 10 μM
Outline: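 Differentiated L6 myotubes stimulated 15 min with test compound or isoprenaline, each at final 1×10^−5 M, in HBSS with 1% BSA, 5 mM HEPES, 1 mM IBMX, pH 7.4. cAMP production by the compound expressed relative to that induced by the same concentration of isoprenaline.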

[2] = system: differentiated L6-myotubes; experiment: Glucose uptake screen (Biological example 1 of WO 2019/053427); type: cell-based; conditions: compound at 10 μM, activity relative to isoproterenol at 10 μM, read-out: Biological example 1 of WO 2019/053427 (GU)
Outline: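 Rat L6 myoblasts were differentiated into myotubes over 7 days in 2% FBS, then serum-starved overnight. Cells were stimulated with 1×10^−5 M compound plus β2 antagonist ICI-118551 for 1 h 40 min and re-dosed for 20 min in glucose-free medium. Uptake of 50 nM ^3H-2-deoxyglucose over 10 min was counted after NaOH lysis.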

## CO[C@H]1CC[C@@H](CCCNC[C@H](O)c2cccc(F)c2)CC1 [Compound 258, (R)-1-(m-fluorophenyl)-2-{3-[(1s,4R)-4-methoxycyclohexyl]propyl-amino}-1-ethanol]
[1]
  Emax at 10 µM: 50 to 75%
[2]
  Emax at 10 µM: > 75%

## CO[C@H]1CC[C@@H](C(C)(C)NC[C@H](O)c2cccc(F)c2)CC1 [Compound 251, (R)-1-(m-fluroophenyl)-2-{1-methyl-1-[(1s,4S)-4-methoxycyclohexyl]ethyl-amino}-1-ethanol]
[1]
  Emax at 10 µM: < 25%
[2]
  Emax at 10 µM: < 25%

## CC(=O)N(C)[C@H]1CC[C@H](CC(C)(C)NC[C@H](O)c2cncc(F)c2)CC1 [Compound 506, N-[(1R,4r)-4-{2-[(R)-2-(5-fluoro-3-pyridyl)-2-hydroxyethylamino]-2-methylpropyl}cyclohexyl]-N-methylacetamide]
[1]
  Emax at 10 µM: 25 to 50%
[2]
  Emax at 10 µM: > 75%

## CC1(C)CC[C@H]([C@H](O)c2ccc(F)cc2)N1 [Compound 173, (R)-[(R)-5,5-dimethyl-2-pyrrolidinyl](p-fluorophenyl)methanol]
[1]
  Emax at 10 µM: < 25%
[2]
  Emax at 10 µM: 50 to 75%

## CCC[C@H]1CCC[C@H]([C@H](O)c2ccc(F)cc2)N1 [Compound 92, (R)-[(2R,6S)-6-propyl-2-piperidyl](p-fluorophenyl)methanol]
[1]
  Emax at 10 µM: < 25%
[2]
  Emax at 10 µM: 25 to 50%

## CCCCNC[C@H](O)c1cccc(F)c1F [Compound 77, (R)-2-(butylamino)-1-(2,3-difluorophenyl)-1-ethanol]
[1]
  Emax at 10 µM: < 25%
[2]
  Emax at 10 µM: > 75%

## CS(=O)(=O)N[C@H]1CC[C@@H](CNC[C@H](O)c2cncc(F)c2)CC1 [Compound 314, (R)-1-(5-fluoro-3-pyridyl)-2-({[(1s,4S)-4-(mesylamino)cyclohexyl]methyl}amino)-1-ethanol]
[1]
  Emax at 10 µM: < 25%
[2]
  Emax at 10 µM: 50 to 75%

## CC12CC(C1)[C@H]([C@@H](O)c1cncc(F)c1)N2 [Compound 222, (S)-{(R)-1-methyl-2-azabicyclo[2.1.1]hex-3-yl}(5-fluoro-3-pyridyl)methanol]
[1]
  Emax at 10 µM: < 25%
[2]
  Emax at 10 µM: < 25%

## CS(=O)(=O)N(Cc1ccccc1)c1cccc(CC23CCC([C@@H](O)c4cccc(F)c4)(CC2)N3)c1 [Compound 512, (S)-[4-({m-[(benzyl)-N-mesylamino]phenyl}methyl)-7-azabicyclo[2.2.1]hept-1-yl](m-fluorophenyl)methanol]
[1]
  Emax at 10 µM: < 25%
[2]
  Emax at 10 µM: < 25%

## CO[C@H]1CC[C@H](C(C)(C)NC[C@H](O)c2cncc(F)c2)CC1 [Compound 240, (R)-1-(5-fluoro-3-pyridyl)-2-{1-methyl-1-[(1r,4R)-4-methoxycyclohexyl]ethyl-amino}-1-ethanol]
[1]
  Emax at 10 µM: < 25%
[2]
  Emax at 10 µM: > 75%

## CC(C)(CC[C@H]1CC[C@@H](O)CC1)NC[C@H](O)c1cccc(F)c1 [Compound 295, (R)-2-{1,1-dimethyl-3-[(1s,4R)-4-hydroxycyclohexyl]propylamino}-1-(m-fluorophenyl)-1-ethanol]
[1]
  Emax at 10 µM: < 25%
[2]
  Emax at 10 µM: > 75%

## CCC[C@@H]1CCC[C@H]([C@H](O)c2cccc(O)c2)N1 [Compound 45, (R)-[(2R,6R)-6-propyl-2-piperidyl](m-hydroxyphenyl)methanol]
[1]
  Emax at 10 µM: < 25%
[2]
  Emax at 10 µM: > 75%

## CC(C)(C[C@H]1CC[C@@H](O)CC1)NC[C@H](O)c1cccc(F)c1 [Compound 302, (R)-2-{1,1-dimethyl-2-[(1s,4S)-4-hydroxycyclohexyl]ethylamino}-1-(m-fluorophenyl)-1-ethanol]
[1]
  Emax at 10 µM: < 25%
[2]
  Emax at 10 µM: 50 to 75%

## O[C@@H](CNCC[C@H]1CC[C@@H](OCc2ccccc2)CC1)c1cccc(F)c1 [Compound 287, (R)-1-(m-fluorophenyl)-2-{2-[(1s,4S)-4-(benzyloxy)cyclohexyl]eth-ylamino}-1-ethanol]
[1]
  Emax at 10 µM: < 25%
[2]
  Emax at 10 µM: 50 to 75%

## CCC[C@H]1CCCC[C@@H]([C@H](O)c2cncc(F)c2)N1 [Compound 234, (R)-[(2S,7S)-7-propyl-2-azepanyl](5-fluoro-3-pyridyl)methanol]
[1]
  Emax at 10 µM: < 25%
[2]
  Emax at 10 µM: > 75%

## CCC[C@@H](C)NC[C@H](O)c1ccc(O)cc1 [Compound 27, (R)-2-[(R)-1-methylbutylamino]-1-(p-hydroxyphenyl)-1-ethanol]
[1]
  Emax at 10 µM: 25 to 50%
[2]
  Emax at 10 µM: > 75%

## CC1(C)CC[C@H]([C@@H](O)c2cncc(O)c2)N1 [Compound 166, 5-{(S)-[(R)-5,5-dimethyl-2-pyrrolidinyl]hydroxymeth-yl}-3-pyridinol]
[1]
  Emax at 10 µM: < 25%
[2]
  Emax at 10 µM: 25 to 50%

## CC(C)(C)NC[C@H](O)c1cccc(C(F)(F)F)n1 [Compound 397, (S)-2-(tert-butylamino)-1-[6-(trifluoromethyl)-2-pyridyl]-1-ethanol]
[1]
  Emax at 10 µM: < 25%
[2]
  Emax at 10 µM: > 75%

## CC1(C)CCC[C@H]([C@@H](O)c2cccc(O)c2)N1 [Compound 103, (S)-[(R)-6,6-dimethyl-2-piperidyl](m-hydroxyphenyl)methanol]
[1]
  Emax at 10 µM: < 25%
[2]
  Emax at 10 µM: 25 to 50%

## CC(C)(C[C@H]1CC[C@@H](N)CC1)NC[C@@H](O)c1cccc(C#N)n1 [Compound 416, 6-[(R)-2-{1,1-dimethyl-2-[(1s,4S)-4-aminocyclohexyl]ethylamino}-1-hydroxyethyl]-2-pyridinecarbonitrile]
[1]
  Emax at 10 µM: < 25%
[2]
  Emax at 10 µM: 50 to 75%

## CC(C)(NC[C@H](O)c1cncc(F)c1)[C@H]1CC[C@@H](OCc2ccccc2)CC1 [Compound 282, (R)-1-(5-fluoro-3-pyridyl)-2-{1-methyl-1-[(1s,4S)-4-(benzyloxy)cylcohexyl]eth-ylamino}-1-ethanol]
[1]
  Emax at 10 µM: < 25%
[2]
  Emax at 10 µM: 50 to 75%

## O[C@@H](c1cncc(F)c1)C12CCC(CCc3ccc(OC(F)(F)F)cc3)(CC1)N2 [Compound 543, (S)-(5-fluoro-3-pyridyl){4-[2-(p-trifluoromethoxyphenyl)ethyl]-7-azabicyclo[2.2.1]hept-1-yl}methanol]
[1]
  Emax at 10 µM: < 25%
[2]
  Emax at 10 µM: < 25%

## CS(=O)(=O)N(Cc1ccccc1)c1ccc(CC23CCC([C@@H](O)c4cccc(F)c4)(CC2)N3)cc1 [Compound 472, (S)-[4-({p-[(benzyl)-N-mesylamino]phenyl}methyl)-7-azabicyclo[2.2.1]hept-1-yl](m-fluorophenyl)methanol]
[1]
  Emax at 10 µM: < 25%
[2]
  Emax at 10 µM: 25 to 50%

## CC(C)(NC[C@H](O)c1cncc(F)c1)[C@H]1CC[C@H](NS(C)(=O)=O)CC1 [Compound 345, (R)-1-(5-fluoro-3-pyridyl)-2-{1-methyl-1-[(1r,4R)-4-(mesylamino)cyclohexyl]ethylamino}-1-ethanol]
[1]
  Emax at 10 µM: < 25%
[2]
  Emax at 10 µM: 25 to 50%

## CCC[C@H]1CC[C@@H]([C@@H](O)c2cccc(F)c2)N1 [Compound 131, (S)-[(2S,5S)-5-propyl-2-pyrrolidinyl](m-fluorophenyl)methanol]
[1]
  Emax at 10 µM: < 25%
[2]
  Emax at 10 µM: 50 to 75%

## CC(C)(C[C@H]1CC[C@H](NC(=O)c2ccccc2)CC1)NC[C@H](O)c1cccc(F)c1 [Compound 384, N-[(1R,4r)-4-{2-[(R)-2-(m-fluorophenyl)-2-hydroxyethylamino]-2-methylpropyl}cyclohexyl]benzamide]
[1]
  Emax at 10 µM: > 75%
[2]
  Emax at 10 µM: > 75%

## COC(=O)[C@H]1CC[C@@H](CC(C)(C)NC[C@H](O)c2cncc(F)c2)CC1 [Compound 322, methyl (1S,4s)-4-{2-[(R)-2-(5-fluoro-3-pyridyl)-2-hydroxyethylamino]-2-methylpropyl}cyclohexanecarboxylate]
[1]
  Emax at 10 µM: < 25%
[2]
  Emax at 10 µM: > 75%

## CC(C)(C)NC[C@H](O)c1ccncc1F [Compound 108, (R)-2-(tert-butylamino)-1-(3-fluoro-4-pyridyl)-1-ethanol]
[1]
  Emax at 10 µM: < 25%
[2]
  Emax at 10 µM: 25 to 50%

## O[C@@H](c1cccc(F)c1)[C@H]1CCC2(CC2)N1 [Compound 171, (S)-{(R)-4-aza-5-spiro[2.4]heptyl}(m-fluorophenyl)methanol]
[1]
  Emax at 10 µM: < 25%
[2]
  Emax at 10 µM: 25 to 50%

## CCC[C@H]1CCC[C@H]([C@@H](O)c2ccccc2F)N1 [Compound 106, (S)-[(2R,6S)-6-propyl-2-piperidyl](o-fluorophenyl)methanol]
[1]
  Emax at 10 µM: < 25%
[2]
  Emax at 10 µM: 25 to 50%

## O[C@@H](c1cccc(F)c1)C12CCC(Cc3ccccc3)(CC1)N2 [Compound 389, (S)-(4-benzyl-7-azabicyclo[2.2.1]hept-1-yl)(m-fluorophenyl)methanol]
[1]
  Emax at 10 µM: < 25%
[2]
  Emax at 10 µM: 50 to 75%

## O[C@H](c1cccc(F)c1)C12CCC(Cc3ccc(F)cc3)(CC1)N2 [Compound 413, (R)-(m-florophenyl){4-[(p-fluorophenyl)methyl]-7-azabicyclo[2.2.1]hept-1-yl}methanol]
[1]
  Emax at 10 µM: < 25%
[2]
  Emax at 10 µM: > 75%

## CC(C)(CC[C@H]1CC[C@@H](O)CC1)NC[C@H](O)c1cncc(F)c1 [Compound 296, (R)-2-{1,1-dimethyl-3-[(1s,4R)-4-hydroxycyclohexyl]propylamino}-1-(5-fluoro-3-pyridyl)-1-ethanol]
[1]
  Emax at 10 µM: < 25%
[2]
  Emax at 10 µM: > 75%

## CO[C@H]1CC[C@H](C[C@H]2CC[C@H]([C@@H](O)c3cccc(F)c3)N2)CC1 [Compound 334, (S)-[(2R,5R)-5-{[(1r,4R)-4-methoxycyclohexyl]methyl}-2-pyrrolidinyl](m-fluorophenyl)methanol]
[1]
  Emax at 10 µM: < 25%
[2]
  Emax at 10 µM: 25 to 50%

## CN(C)S(=O)(=O)[C@H]1CC[C@H](CC(C)(C)NC[C@H](O)c2cncc(F)c2)CC1 [Compound 465, (R)-2-{1,1-dimethyl-2-[(1r,4R)-4-(dimethylaminosulfonyl)cyclohexyl]ethylamino}-1-(5-fluoro-3-pyridyl)-1-ethanol]
[1]
  Emax at 10 µM: 25 to 50%
[2]
  Emax at 10 µM: 50 to 75%
